Assay results taken from PMC4522678, “Adaptation of the human aryl hydrocarbon receptor to sense microbiota-derived indoles” (Scientific Reports, 2015).

How the values were obtained:
[1] = target: T1, human aryl hydrocarbon receptor (AHR) (Homo sapiens, UniProt P35869); experiment: gel shift (EMSA) of in vitro translated AHR/ARNT; HepG2 reporter; assay type: cell-based; design: in vitro translated human AHR; with ARNT
Target sequence in this assay (P35869 11-848): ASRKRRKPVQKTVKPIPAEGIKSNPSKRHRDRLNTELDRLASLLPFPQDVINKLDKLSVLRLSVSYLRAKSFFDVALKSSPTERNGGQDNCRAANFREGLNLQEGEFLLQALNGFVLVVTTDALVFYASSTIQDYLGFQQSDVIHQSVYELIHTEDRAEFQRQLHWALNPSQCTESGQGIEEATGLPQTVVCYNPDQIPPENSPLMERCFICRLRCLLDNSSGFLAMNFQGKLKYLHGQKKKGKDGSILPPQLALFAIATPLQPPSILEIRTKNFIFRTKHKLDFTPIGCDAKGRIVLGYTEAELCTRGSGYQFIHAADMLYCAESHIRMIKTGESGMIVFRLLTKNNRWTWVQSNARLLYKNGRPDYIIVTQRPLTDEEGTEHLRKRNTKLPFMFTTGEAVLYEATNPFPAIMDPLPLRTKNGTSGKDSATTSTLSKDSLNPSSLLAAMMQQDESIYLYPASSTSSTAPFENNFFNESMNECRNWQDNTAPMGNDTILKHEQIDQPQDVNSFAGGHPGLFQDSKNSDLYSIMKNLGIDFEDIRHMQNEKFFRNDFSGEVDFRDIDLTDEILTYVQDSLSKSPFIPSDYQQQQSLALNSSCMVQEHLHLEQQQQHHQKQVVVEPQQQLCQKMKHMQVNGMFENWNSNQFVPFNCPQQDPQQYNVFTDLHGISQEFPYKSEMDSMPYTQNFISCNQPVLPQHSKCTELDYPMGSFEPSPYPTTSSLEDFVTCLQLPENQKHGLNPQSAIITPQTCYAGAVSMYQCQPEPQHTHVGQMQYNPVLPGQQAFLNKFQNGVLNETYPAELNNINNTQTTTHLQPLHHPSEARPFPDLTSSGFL
Target sequence in this assay (P27540 2-789 partner): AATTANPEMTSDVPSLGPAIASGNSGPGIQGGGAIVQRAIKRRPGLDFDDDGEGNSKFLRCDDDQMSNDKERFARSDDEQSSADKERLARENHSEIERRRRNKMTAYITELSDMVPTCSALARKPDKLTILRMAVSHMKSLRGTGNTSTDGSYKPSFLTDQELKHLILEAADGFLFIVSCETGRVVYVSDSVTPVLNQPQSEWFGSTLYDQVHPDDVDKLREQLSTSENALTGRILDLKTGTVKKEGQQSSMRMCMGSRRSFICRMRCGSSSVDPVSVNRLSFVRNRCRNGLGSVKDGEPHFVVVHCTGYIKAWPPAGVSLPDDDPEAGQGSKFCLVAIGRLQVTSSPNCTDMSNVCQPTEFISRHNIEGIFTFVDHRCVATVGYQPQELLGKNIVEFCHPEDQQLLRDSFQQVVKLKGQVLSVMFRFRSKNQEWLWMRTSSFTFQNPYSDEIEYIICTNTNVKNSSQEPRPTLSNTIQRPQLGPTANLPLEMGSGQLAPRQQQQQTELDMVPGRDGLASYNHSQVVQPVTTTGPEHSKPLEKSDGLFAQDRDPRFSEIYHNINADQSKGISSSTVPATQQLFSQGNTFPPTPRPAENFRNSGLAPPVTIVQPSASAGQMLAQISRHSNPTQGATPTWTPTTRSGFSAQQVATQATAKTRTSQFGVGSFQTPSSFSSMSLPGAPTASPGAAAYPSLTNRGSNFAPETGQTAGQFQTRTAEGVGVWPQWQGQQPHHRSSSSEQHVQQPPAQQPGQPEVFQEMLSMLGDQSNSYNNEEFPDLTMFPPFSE

chimpanzee AHR [2] = target: T2, chimpanzee AHR (Pan troglodytes, UniProt K7AJA4); experiment: gel shift (EMSA) of in vitro translated AHR/ARNT, […] TCDD; assay type: cell-based
T2 construct: in vitro translated chimpanzee AHR; with ARNT
T2 sequence (K7AJA4 1-850): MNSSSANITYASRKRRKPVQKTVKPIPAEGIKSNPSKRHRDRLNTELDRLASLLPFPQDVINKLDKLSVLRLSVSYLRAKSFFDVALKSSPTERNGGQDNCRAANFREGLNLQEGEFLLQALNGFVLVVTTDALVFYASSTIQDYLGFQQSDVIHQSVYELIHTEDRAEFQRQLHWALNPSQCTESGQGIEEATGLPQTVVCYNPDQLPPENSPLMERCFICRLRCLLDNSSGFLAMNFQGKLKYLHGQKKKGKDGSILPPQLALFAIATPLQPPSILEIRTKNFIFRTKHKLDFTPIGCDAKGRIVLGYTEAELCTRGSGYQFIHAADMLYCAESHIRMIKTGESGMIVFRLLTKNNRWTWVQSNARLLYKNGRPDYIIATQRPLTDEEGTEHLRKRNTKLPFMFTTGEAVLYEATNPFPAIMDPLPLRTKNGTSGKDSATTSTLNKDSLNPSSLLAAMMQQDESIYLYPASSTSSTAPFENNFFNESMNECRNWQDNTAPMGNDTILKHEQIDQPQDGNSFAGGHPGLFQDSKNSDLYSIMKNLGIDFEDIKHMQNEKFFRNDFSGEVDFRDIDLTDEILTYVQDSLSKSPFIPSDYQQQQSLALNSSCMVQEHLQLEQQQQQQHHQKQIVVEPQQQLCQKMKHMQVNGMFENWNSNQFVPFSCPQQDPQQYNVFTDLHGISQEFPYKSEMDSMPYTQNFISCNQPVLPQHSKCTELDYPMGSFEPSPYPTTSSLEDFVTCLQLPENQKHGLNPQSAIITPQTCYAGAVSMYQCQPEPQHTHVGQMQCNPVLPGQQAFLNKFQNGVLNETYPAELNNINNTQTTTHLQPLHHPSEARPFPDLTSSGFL

[3] = target: T1, human aryl hydrocarbon receptor (AHR); experiment: competition with radioiodinated photoaffinity ligand in hAHR liver cytosol; also gel shift with in vitro translated hAHR/ARNT; design: human AHR transgene expressed in mouse liver (hepatic cytosol)
Target sequence in this assay (P35869 11-848): as the sequence (P35869 11-848) above

chimpanzee AHR [4] = target: T2, chimpanzee AHR; experiment: gel shift (EMSA) of in vitro translated AHR/ARNT, […] indole; assay type: cell-based

Cc1c[nH]c2ccccc12 [3-MI, 3-methyl indole]
gel shift (EMSA) of in vitro translated AHR/ARNT; HepG2 reporter [1]: 3-methyl indole, like indole was associated with enhanced binding of AHR/ARNT to its cognate response element

Clc1cc2c(cc1Cl)Oc1cc(Cl)c(Cl)cc1O2 [TCDD]
gel shift (EMSA) of in vitro translated AHR/ARNT, 10 nM TCDD (chimpanzee AHR [2]): revealed chimpanzee AHR to be sensitive to both TCDD and indole-mediated activation

c1ccc2[nH]ccc2c1 [indole]
competition with radioiodinated photoaffinity ligand in hAHR liver cytosol; also [3]: dose-dependent decrease in PAL binding consistent with indole being a competitor and direct ligand for the human AHR | gel shift (EMSA) of in vitro translated AHR/ARNT, 20 μM indole (chimpanzee AHR [4]): revealed chimpanzee AHR to be sensitive to both TCDD and indole-mediated activation
